From patent US4465631A, “5-Substituted-3-isoxazolecarboxylic acid derivatives” (Ajinomoto Company, Incorporated, priority 1982, dated 1984)
≈ marks a conversion by molar mass, not a printed value. Where a name gives a salt, the structure may show the parent alone. Read-outs that look alike come from different tables or passages of the source.

How the values were obtained:
Assay in all cases: Antibacterial activity (MIC)
Format in all cases: cell-based
Pseudomonas cepacia = conditions: Burkholderia cepacia
From the text: (§1) Regarding the products produced in the above mentioned Examples antibacterial activities against some microorganisms were obtained.

Bacteroides fragilis = tested on: Bacteroides fragilis
From the text: as §1

Proteus mirabilis = tested on: Proteus mirabilis
From the text: as §1

Serratia marcescens = tested on: Serratia marcescens
From the text: as §1

Escherichia coli = tested on: Escherichia coli
From the text: as §1

[1] = tested on: Achromobacter xylosoxidans
From the text: as §1

Pseudomonas aeruginosa = tested on: Pseudomonas aeruginosa
From the text: as §1

Pseudomonas maltophilia = conditions: Stenotrophomonas maltophilia
From the text: as §1

Alcaligenes faecalis = tested on: Alcaligenes faecalis
From the text: as §1

Staphylococcus aureus = tested on: Staphylococcus aureus
From the text: as §1

Klebsiella pneumoniae = tested on: Klebsiella pneumoniae
From the text: as §1

| Compound | MIC (Pseudomonas cepacia) [µg/mL] | MIC (Bacteroides fragilis) [µg/mL] | MIC (Proteus mirabilis) [µg/mL] | MIC (Serratia marcescens) [µg/mL] | MIC (Escherichia coli) [µg/mL] | MIC [1] [µg/mL] | MIC (Pseudomonas aeruginosa) [µg/mL] | MIC (Pseudomonas maltophilia) [µg/mL] | MIC (Alcaligenes faecalis) [µg/mL] | MIC (Staphylococcus aureus) [µg/mL] | MIC (Klebsiella pneumoniae) [µg/mL] | MIC (Escherichia coli; read-out: MIC) [µg/mL] |
| --- | --- | --- | --- | --- | --- | --- | --- | --- | --- | --- | --- | --- |
| CC1(C)S[C@@H]2[C@H](NC(=O)C(C(=O)O)c3ccccc3)C(=O)N2[C@H]1C(=O)O (some centres unmarked) [Carbenicillin, reference compound] | > 100 | > 100 | 0.78 (≈ 2.06 µM) | > 100 | 12.5 (≈ 33 µM) | > 100 | 25 (≈ 66.1 µM) | > 100 | > 100 | 0.78 (≈ 2.06 µM) | > 100 |  |
| Cc1ccc(-c2cc(C(=O)N[C@@H](C(=O)N[C@@H]3C(=O)N4[C@@H]3SC(C)(C)[C@@H]4C(=O)O)c3ccccc3)no2)cc1 [Example 1, α-[5-(4-methylphenyl)-3-isoxazolecarboxamido]-benzylpenicillin] | 3.13 (≈ 5.85 µM) | 6.25 (≈ 11.7 µM) | 0.78 (≈ 1.46 µM) | 12.5 (≈ 23.4 µM) |  | 1.56 (≈ 2.92 µM) | 3.13 (≈ 5.85 µM) | 6.25 (≈ 11.7 µM) | 6.25 (≈ 11.7 µM) | ≤ 0.1 | 6.25 (≈ 11.7 µM) | 12.5 (≈ 23.4 µM) |
| COc1cccc(-c2cc(C(=O)N[C@@H](C(=O)N[C@@H]3C(=O)N4[C@@H]3SC(C)(C)[C@@H]4C(=O)O)c3ccccc3)no2)c1 [Example 3, D-α-(5-m-anisylisoxazole-3-carboxamido)-benzylpenicillin sodium salt] | 3.13 | 12.5 | 0.39 | 12.5 |  | 3.13 | 6.25 | 12.5 | 6.25 | 0.2 | 12.5 | 12.5 |
| CC1(C)S[C@@H]2[C@H](NC(=O)[C@H](NC(=O)c3cc(-c4cccs4)on3)c3ccccc3)C(=O)N2[C@H]1C(=O)O [Example 8, D-α-[5-(2-thienyl)-isoxazole-3-carboxamido]-benzyl-penicillin sodium salt] | 6.25 | 12.5 | 0.78 | 25 |  | 3.13 | 6.25 | 12.5 | 12.5 | ≤ 0.1 | 12.5 | 12.5 |
